According to patent US7994177B2, “Therapeutic agents useful for treating pain” (Purdue Pharma L.P., priority 2003, dated 2011):

Experiments:
human VR1 [1] = target: T1, human VR1 (Homo sapiens, UniProt Q8NER1); assay: pH-based assay of human VR1 (FLIPR calcium influx); type: cell-based; conditions: agonist buffer pH 5.5, HEK293-EcR cells expressing human VR1, n=4
T1 construct: expressed in transfected cells
Experimental: (§1) Human VR1 Cloning: Human spinal cord RNA (commercially available from Clontech, Palo Alto, Calif.) was used. Reverse transcription was conducted on 1.0 μg total RNA using Thermoscript Reverse Transcriptase (commercially available from Invitrogen) and oligo dT primers as detailed in its product description. Reverse transcription reactions were incubated at 55° C. for 1 h, heat-inactivated at 85° C. for 5 min, and RNase H-treated at 37° C. for 20 min.
(§2) Human VR1 cDNA sequence was obtained by comparison of the human genomic sequence, prior to annotation, to the published rat sequence. Intron sequences were removed and flanking exonic sequences were joined to generate the hypothetical human cDNA. Primers flanking the coding region of human VR1 were designed as follows: forward primer, […]; and reverse primer, […]. […]
(§3) Generation of Inducible Cell Lines: Unless noted otherwise, cell culture reagents were purchased from Life Technologies of Rockville, Md. […] On the day of assay, cells were loaded with Fluo-4 (a calcium-sensitive dye that is commercially available from Molecular Probes) and CAP-mediated calcium influx was measured using a FLIPR as described below. […]

human VR1 [2] = target: T1, human VR1; assay: Capsaicin-based assay of human VR1 (FLIPR calcium influx); type: cell-based; conditions: activation by capsaicin (400 nM), HEK293-EcR cells expressing human VR1, n=3
Experimental: as §1, §2, §3

T1 sequence (Q8NER1 whole entry): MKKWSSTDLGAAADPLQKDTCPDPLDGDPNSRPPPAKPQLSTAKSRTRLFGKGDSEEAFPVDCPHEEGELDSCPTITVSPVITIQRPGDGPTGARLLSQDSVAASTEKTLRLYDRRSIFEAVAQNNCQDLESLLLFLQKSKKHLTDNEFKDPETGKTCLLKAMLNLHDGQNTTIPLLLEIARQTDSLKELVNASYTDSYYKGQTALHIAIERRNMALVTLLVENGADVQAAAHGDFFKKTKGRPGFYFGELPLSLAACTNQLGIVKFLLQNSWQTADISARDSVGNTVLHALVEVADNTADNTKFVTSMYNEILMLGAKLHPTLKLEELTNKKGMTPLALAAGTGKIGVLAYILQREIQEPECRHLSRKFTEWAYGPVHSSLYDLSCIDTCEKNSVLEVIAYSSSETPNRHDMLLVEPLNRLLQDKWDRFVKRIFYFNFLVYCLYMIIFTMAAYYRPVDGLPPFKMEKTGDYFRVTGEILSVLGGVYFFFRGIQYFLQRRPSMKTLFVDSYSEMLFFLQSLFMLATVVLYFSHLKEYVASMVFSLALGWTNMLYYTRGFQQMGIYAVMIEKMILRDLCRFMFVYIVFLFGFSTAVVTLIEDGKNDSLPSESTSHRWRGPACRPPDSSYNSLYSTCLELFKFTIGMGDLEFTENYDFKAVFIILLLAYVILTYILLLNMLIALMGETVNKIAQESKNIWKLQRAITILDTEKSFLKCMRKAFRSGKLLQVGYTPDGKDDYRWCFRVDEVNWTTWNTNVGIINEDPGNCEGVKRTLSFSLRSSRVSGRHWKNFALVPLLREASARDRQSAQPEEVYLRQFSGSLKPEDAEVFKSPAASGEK

IC50 (human VR1 [1]): 826 ± 248 nM
IC50 (human VR1 [2]): 65.5 ± 17.3 nM
SMILES: Cc1cccnc1-c1ccc(C(=O)Nc2ccc(C(C)(C)C)cc2)nc1 [E35(a)]
